# Measured values published in ChEMBL document CHEMBL4715808, “Discovery of (1S,2R,3S,4S,5R,6R)-2-Amino-3-[(3,4-difluorophenyl)sulfanylmethyl]-4-hydroxy-bicyclo[3.1.0]hexane-2,6-dicarboxylic Acid Hydrochloride (LY3020371·HCl): A Potent, Metabotropic Glutamate 2/3 Receptor Antagonist with Antidepressant-Like Activity” (J Med Chem, 2016).
# Experiments:
# [1] = biological target: T1, Metabotropic glutamate receptor 2 (Homo sapiens, UniProt Q14416)
# Description: Antagonist activity at human recombinant mGlu2 receptor stably expressed in golden hamster AV12 cells co-expressing rat EAAT1 assessed as reduction in DCG IV-induced inhibition of forskolin-stimulated cAMP accumulation preincubated for 20 mins followed by incubation with cAMP-d2 conjugate and anti-cAMP cryptate for 1 hr by HTRF assay
# [2] = biological target: T1, Metabotropic glutamate receptor 2; remark: listed apart in the source
# Description: Displacement of [3H]-LY459477 from recombinant human mGlu2 receptor expressed in hamster AV12 cell membranes co-expressing rat EAAT1 incubated for 90 mins by top count scintillation method
# [3] = Antagonist activity at human recombinant mGlu7 stably expressed in golden hamster AV12 cell membrane co-expressing Galpha15 assessed as reduction in glutamate-induced calcium influx incubated for 90 to 120 min by Fluo-4-AM dye based FLIPR assay; format: cell membranes
# [4] = biological target: T2, Metabotropic glutamate receptor 6 (Homo sapiens, UniProt O15303); test: Agonist activity at human recombinant mGlu6 stably expressed in golden hamster AV12 cell membrane co-expressing Galpha15 assessed as assessed as increase in calcium influx incubated for 90 to 120 min by Fluo-4-AM dye based FLIPR assay; format: functional, cell membranes
# T2 sequence (O15303 whole entry): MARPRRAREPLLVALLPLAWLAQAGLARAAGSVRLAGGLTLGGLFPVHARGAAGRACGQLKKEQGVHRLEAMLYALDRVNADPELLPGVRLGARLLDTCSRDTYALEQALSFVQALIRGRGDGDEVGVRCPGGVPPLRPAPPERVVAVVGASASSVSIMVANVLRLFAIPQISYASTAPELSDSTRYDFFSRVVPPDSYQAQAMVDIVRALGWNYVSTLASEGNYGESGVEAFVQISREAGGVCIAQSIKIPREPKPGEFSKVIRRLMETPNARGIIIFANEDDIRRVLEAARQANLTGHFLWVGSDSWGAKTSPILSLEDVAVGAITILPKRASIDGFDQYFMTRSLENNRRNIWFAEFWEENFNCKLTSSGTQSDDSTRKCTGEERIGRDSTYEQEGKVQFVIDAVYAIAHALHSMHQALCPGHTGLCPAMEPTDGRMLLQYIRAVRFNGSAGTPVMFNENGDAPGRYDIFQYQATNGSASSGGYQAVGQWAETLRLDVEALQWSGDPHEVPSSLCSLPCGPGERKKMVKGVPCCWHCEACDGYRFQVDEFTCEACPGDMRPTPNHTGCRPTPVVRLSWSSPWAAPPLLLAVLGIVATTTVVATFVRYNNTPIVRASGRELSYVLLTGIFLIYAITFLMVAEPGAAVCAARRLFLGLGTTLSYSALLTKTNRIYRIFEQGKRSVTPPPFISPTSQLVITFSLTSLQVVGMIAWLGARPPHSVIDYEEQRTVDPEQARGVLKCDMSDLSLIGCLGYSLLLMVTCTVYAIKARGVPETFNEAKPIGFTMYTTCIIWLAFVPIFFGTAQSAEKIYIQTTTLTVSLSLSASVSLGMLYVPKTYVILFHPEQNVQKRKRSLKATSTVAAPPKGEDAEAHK
# [5] = Agonist activity at human recombinant mGlu7 stably expressed in golden hamster AV12 cell membrane co-expressing Galpha15 assessed as assessed as increase in calcium influx incubated for 90 to 120 min by Fluo-4-AM dye based FLIPR assay; format: cell membranes
# [6] = biological target: T3, Metabotropic glutamate receptor 3 (Homo sapiens, UniProt Q14832); test: Displacement of [3H]-LY459477 from recombinant human mGlu3 receptor expressed in hamster AV12 cell membranes co-expressing rat EAAT1 incubated for 90 mins by top count scintillation method; parameters: species or system Cell membrane
# T3 sequence (Q14832 whole entry): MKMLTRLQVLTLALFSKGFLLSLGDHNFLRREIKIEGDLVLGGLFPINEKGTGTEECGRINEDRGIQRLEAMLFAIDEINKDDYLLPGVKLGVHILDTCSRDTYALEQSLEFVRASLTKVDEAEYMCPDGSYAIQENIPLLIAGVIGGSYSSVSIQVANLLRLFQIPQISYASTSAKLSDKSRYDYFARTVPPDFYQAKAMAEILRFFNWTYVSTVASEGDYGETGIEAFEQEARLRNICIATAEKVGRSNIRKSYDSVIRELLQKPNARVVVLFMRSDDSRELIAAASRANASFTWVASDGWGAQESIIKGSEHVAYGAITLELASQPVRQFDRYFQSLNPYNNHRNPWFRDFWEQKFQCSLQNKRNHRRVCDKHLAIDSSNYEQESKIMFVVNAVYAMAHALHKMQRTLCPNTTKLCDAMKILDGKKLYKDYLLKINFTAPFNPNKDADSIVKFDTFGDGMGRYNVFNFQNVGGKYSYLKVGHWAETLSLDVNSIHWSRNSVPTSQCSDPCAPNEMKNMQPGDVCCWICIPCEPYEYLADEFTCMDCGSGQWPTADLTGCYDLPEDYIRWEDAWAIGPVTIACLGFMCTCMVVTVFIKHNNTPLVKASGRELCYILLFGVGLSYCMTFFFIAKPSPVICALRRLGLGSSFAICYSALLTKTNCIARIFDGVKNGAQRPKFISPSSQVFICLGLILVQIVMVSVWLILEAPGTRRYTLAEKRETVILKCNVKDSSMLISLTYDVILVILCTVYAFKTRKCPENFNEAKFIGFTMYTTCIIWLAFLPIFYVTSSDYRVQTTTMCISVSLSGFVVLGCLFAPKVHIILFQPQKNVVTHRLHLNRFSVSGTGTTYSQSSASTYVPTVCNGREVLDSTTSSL
# [7] = biological target: T3, Metabotropic glutamate receptor 3; test: Antagonist activity at human recombinant mGlu3 stably expressed in golden hamster AV12 cell membrane co-expressing Galpha15 assessed as assessed as reduction in glutamate-induced calcium influx incubated for 90 to 120 min by Fluo-4-AM dye based FLIPR assay; format: functional, cell membranes
# [8] = biological target: T4, Metabotropic glutamate receptor 1 (Homo sapiens, UniProt Q13255); test: Agonist activity at human recombinant mGlu1 stably expressed in golden hamster AV12 cell membrane co-expressing Gq assessed as assessed as increase in calcium influx incubated for 90 to 120 min by Fluo-4-AM dye based FLIPR assay; format: functional, cell membranes
# T4 sequence (Q13255 whole entry): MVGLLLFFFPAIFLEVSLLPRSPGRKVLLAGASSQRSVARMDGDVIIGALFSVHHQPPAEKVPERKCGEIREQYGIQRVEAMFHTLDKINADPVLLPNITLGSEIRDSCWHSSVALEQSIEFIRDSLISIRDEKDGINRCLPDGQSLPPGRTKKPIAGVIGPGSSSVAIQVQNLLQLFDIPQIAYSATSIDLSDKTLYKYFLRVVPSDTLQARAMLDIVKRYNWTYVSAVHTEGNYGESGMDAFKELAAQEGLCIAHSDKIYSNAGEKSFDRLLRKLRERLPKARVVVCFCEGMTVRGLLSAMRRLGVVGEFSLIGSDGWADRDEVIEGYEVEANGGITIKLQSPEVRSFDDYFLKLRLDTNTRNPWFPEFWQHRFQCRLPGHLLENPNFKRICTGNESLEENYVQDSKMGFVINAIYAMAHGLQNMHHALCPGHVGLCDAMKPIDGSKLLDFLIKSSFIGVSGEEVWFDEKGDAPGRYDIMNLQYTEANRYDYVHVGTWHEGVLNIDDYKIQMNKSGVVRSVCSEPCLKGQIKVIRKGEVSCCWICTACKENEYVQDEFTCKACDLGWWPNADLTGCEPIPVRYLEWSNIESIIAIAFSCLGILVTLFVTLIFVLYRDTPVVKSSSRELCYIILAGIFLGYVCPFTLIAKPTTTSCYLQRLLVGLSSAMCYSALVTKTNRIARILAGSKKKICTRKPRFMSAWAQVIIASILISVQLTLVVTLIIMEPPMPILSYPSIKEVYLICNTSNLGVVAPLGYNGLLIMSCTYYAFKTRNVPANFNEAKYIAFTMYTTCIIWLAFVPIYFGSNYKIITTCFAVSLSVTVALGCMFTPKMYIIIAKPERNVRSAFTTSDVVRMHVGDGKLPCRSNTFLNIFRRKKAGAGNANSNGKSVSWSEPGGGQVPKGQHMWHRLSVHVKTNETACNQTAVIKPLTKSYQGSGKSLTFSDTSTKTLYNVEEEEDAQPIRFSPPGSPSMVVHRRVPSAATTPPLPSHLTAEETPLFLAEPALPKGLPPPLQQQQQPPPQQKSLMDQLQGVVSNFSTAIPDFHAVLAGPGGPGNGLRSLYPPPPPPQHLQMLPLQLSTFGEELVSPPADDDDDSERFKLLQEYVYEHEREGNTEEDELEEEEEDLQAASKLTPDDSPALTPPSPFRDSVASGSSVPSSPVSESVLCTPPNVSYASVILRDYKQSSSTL
# [9] = biological target: T4, Metabotropic glutamate receptor 1; test: Antagonist activity at human recombinant mGlu1 stably expressed in golden hamster AV12 cell membrane co-expressing Gq assessed as reduction in glutamate-induced calcium influx incubated for 90 to 120 min by Fluo-4-AM dye based FLIPR assay; format: functional, cell membranes
# [10] = biological target: T5, Metabotropic glutamate receptor 4 (Homo sapiens, UniProt Q14833); test: Agonist activity at human recombinant mGlu4 stably expressed in golden hamster AV12 cell membrane co-expressing Galpha15 assessed as assessed as increase in calcium influx incubated for 90 to 120 min by Fluo-4-AM dye based FLIPR assay; format: functional, cell membranes
# [11] = biological target: T5, Metabotropic glutamate receptor 4; test: Antagonist activity human recombinant mGlu4 stably expressed in golden hamster AV12 cell membrane co-expressing Galpha15 assessed as reduction in glutamate-induced calcium influx incubated for 90 to 120 min by Fluo-4-AM dye based FLIPR assay; format: functional, cell membranes
# [12] = biological target: T2, Metabotropic glutamate receptor 6; test: Antagonist activity at human recombinant mGlu6 stably expressed in golden hamster AV12 cell membrane co-expressing Galpha15 assessed as reduction in glutamate-induced calcium influx incubated for 90 to 120 min by Fluo-4-AM dye based FLIPR assay; format: functional, cell membranes
# [13] = biological target: T6, Metabotropic glutamate receptor 5 (Homo sapiens, UniProt P41594); test: Agonist activity at human recombinant mGlu5 stably expressed in golden hamster AV12 cell membrane co-expressing Gq assessed as assessed as increase in calcium influx incubated for 90 to 120 min by Fluo-4-AM dye based FLIPR assay; format: functional, cell membranes
# T6 sequence (P41594 whole entry): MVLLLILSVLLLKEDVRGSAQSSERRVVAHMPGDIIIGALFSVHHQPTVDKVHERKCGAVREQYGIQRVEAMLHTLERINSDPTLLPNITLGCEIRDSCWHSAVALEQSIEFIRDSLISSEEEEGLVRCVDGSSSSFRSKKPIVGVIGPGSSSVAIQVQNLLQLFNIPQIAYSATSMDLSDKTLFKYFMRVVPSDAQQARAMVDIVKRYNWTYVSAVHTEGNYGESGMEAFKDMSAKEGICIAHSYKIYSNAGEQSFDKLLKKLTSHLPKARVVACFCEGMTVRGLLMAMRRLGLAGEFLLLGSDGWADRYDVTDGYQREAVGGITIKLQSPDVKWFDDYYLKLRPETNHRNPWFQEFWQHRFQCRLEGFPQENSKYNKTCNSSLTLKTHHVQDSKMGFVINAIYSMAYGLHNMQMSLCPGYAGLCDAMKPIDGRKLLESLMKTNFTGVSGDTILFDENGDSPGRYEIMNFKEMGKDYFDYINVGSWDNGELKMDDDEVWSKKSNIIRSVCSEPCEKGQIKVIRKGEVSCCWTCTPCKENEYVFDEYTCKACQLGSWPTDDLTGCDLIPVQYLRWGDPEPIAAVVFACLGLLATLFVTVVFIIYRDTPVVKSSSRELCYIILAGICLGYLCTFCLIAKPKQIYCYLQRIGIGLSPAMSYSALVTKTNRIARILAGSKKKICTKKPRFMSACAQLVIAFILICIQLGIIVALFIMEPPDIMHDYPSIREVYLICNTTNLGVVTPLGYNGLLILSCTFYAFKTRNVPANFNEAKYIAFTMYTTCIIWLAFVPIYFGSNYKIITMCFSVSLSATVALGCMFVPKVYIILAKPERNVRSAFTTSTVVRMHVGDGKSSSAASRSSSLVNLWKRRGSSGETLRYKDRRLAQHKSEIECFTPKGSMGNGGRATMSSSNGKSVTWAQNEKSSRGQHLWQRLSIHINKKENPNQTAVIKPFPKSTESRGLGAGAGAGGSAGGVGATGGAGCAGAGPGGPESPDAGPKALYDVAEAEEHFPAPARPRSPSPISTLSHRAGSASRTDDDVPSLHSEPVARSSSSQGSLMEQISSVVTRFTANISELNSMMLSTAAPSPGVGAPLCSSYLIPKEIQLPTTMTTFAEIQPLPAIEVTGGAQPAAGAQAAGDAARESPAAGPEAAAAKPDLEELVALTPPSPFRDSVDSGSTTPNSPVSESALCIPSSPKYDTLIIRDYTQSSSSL
# [14] = biological target: T6, Metabotropic glutamate receptor 5; test: Antagonist activity at human recombinant mGlu5 stably expressed in golden hamster AV12 cell membrane co-expressing Gq assessed as reduction in glutamate-induced calcium influx incubated for 90 to 120 min by Fluo-4-AM dye based FLIPR assay; format: functional, cell membranes
# [15] = Aqueous solubility of compound at pH 7.4; format: physicochemical; settings: aqueous medium
# [16] = Metabolic stability of compound in mouse hepatocytes assessed as parent compound loss at 2 uM; format: ADME, cell-based, Hepatocyte; settings: read-out: Drug degradation
# [17] = Metabolic stability of compound in rat hepatocytes assessed as parent compound loss at 2 uM; format: ADME, cell-based, Hepatocyte; settings: read-out: Drug degradation
# [18] = Metabolic stability of compound in dog hepatocytes assessed as parent compound loss at 2 uM; format: ADME, cell-based, Canis lupus familiaris, Hepatocyte; settings: read-out: Drug degradation
# [19] = Metabolic stability of compound in human hepatocytes assessed as parent compound loss at 2 uM; format: ADME, cell-based, Hepatocyte; settings: read-out: Drug degradation
# CYP3A4 = CYP3A4 (Homo sapiens, UniProt P08684); test: Inhibition of human CYP3A4 at 10 uM relative to control; format: ADME
# CYP2D6 = CYP2D6 (Homo sapiens, UniProt P10635); test: Inhibition of human CYP2D6 at 10 uM relative to control; format: ADME
# CYP2C9 = CYP2C9 (Homo sapiens, UniProt P11712); test: Inhibition of human CYP2C9 at 10 uM relative to control; format: ADME
# [20] = Protein binding in rat plasma assessed as unbound fraction; format: ADME, cell-free
# [21] = Protein binding in human plasma assessed as unbound fraction; format: ADME, cell-free
# [22] = AUC (0 to 24 hrs) in CD1 mouse plasma in fasting state at 1.1 mg/kg, ip administered as single dose measured after 24 hrs by LC-MS/MS analysis; format: ADME, organism-based; parameters: route intraperitoneal, dose 1.1 mg/kg, time 24 hrs
# [23] = AUC (0 to 24 hrs) in CD1 mouse plasma in fasting state at 3.3 mg/kg, ip administered as single dose measured after 24 hrs by LC-MS/MS analysis; format: ADME, organism-based; parameters: route intraperitoneal, time 24 hrs, dose 3.3 mg/kg
# [24] = AUC (0 to 24 hrs) in CD1 mouse plasma in fasting state at 11 mg/kg, ip administered as single dose measured after 24 hrs by LC-MS/MS analysis; format: ADME, organism-based; parameters: route intraperitoneal, dose 11 mg/kg, time 24 hrs
# [25] = Cmax in CD1 mouse plasma in fasting state at 1.1 mg/kg, ip administered as single dose measured after 24 hrs by LC-MS/MS analysis; format: ADME, organism-based; parameters: route intraperitoneal, dose 1.1 mg/kg, time 24 hrs
# [26] = Cmax in CD1 mouse plasma in fasting state at 3.3 mg/kg, ip administered as single dose measured after 24 hrs by LC-MS/MS analysis; format: ADME, organism-based; parameters: route intraperitoneal, dose 3.3 mg/kg, time 24 hrs
# [27] = Cmax in CD1 mouse plasma in fasting state at 11 mg/kg, ip administered as single dose measured after 24 hrs by LC-MS/MS analysis; format: ADME, organism-based; parameters: route intraperitoneal, dose 11 mg/kg, time 24 hrs
# [28] = Tmax in CD1 mouse plasma in fasting state at 1.1 mg/kg, ip administered as single dose measured after 24 hrs by LC-MS/MS analysis; format: ADME, organism-based
# [29] = Tmax in CD1 mouse plasma in fasting state at 3.3 mg/kg, ip administered as single dose measured after 24 hrs by LC-MS/MS analysis; format: ADME, organism-based
# [30] = Tmax in CD1 mouse plasma in fasting state at 11 mg/kg, ip administered as single dose measured after 24 hrs by LC-MS/MS analysis; format: ADME, organism-based
# [31] = Half life in CD1 mouse plasma in fasting state at 1.1 mg/kg, ip administered as single dose measured after 24 hrs by LC-MS/MS analysis; format: ADME, organism-based
# [32] = Half life in CD1 mouse plasma in fasting state at 3.3 mg/kg, ip administered as single dose measured after 24 hrs by LC-MS/MS analysis; format: ADME, organism-based
# [33] = Half life in CD1 mouse plasma in fasting state at 11 mg/kg, ip administered as single dose measured after 24 hrs by LC-MS/MS analysis; format: ADME, organism-based
# [34] = Dose normalized AUC in CD1 mouse plasma in fasting state at 1.1 mg/kg, ip administered as single dose measured after 24 hrs by LC-MS/MS analysis; format: ADME, organism-based; settings: in vivo
# [35] = Dose normalized AUC in CD1 mouse plasma in fasting state at 3.3 mg/kg, ip administered as single dose measured after 24 hrs by LC-MS/MS analysis; format: ADME, organism-based; settings: in vivo
# [36] = Dose normalized AUC in CD1 mouse plasma in fasting state at 11 mg/kg, ip administered as single dose measured after 24 hrs by LC-MS/MS analysis; format: ADME, organism-based; settings: in vivo
# [37] = Clearance in male Sprague-Dawley rat at 0.3 to 10 mg/kg, iv; format: ADME, organism-based; settings: in vivo, dose 0.3-10 mg/kg
# [38] = Unbound brain concentration in CD1 mouse at 1 mg/kg, ip administered as single dose by LC-MS/MS analysis; format: ADME, organism-based; settings: in vivo
# [39] = Unbound brain concentration in CD1 mouse at 3 mg/kg, ip administered as single dose by LC-MS/MS analysis; format: ADME, organism-based; settings: in vivo
# [40] = Unbound brain concentration in CD1 mouse at 10 mg/kg, ip administered as single dose by LC-MS/MS analysis; format: ADME, organism-based; settings: in vivo
# [41] = Unbound plasma concentration in CD1 mouse at 1 mg/kg, ip administered as single dose by LC-MS/MS analysis; format: ADME, organism-based; settings: in vivo
# [42] = Unbound plasma concentration in CD1 mouse at 3 mg/kg, ip administered as single dose by LC-MS/MS analysis; format: ADME, organism-based; settings: in vivo
# [43] = Unbound plasma concentration in CD1 mouse at 10 mg/kg, ip administered as single dose by LC-MS/MS analysis; format: ADME, organism-based; settings: in vivo
# Mus musculus [44] = test: Antidepressant activity in male Swiss mouse assessed as reduction in immobility time at 1 to 10 mg/kg, ip measured for last 4 mins of 6 mins test by forced swim test relative to control; format: functional; settings: dose 1-10 mg/kg, 0.1 h
# Mus musculus [45] = test: Antidepressant activity in ip dosed male Swiss mouse assessed as reduction in immobility time measured for last 4 mins of 6 mins test by forced swim test; format: functional; settings: 0.1 h
# [46] = biological target: T3, Metabotropic glutamate receptor 3; test: Antagonist activity at human recombinant mGlu3 receptor stably expressed in golden hamster AV12 cells co-expressing rat EAAT1 assessed as reduction in DCG IV-induced inhibition of forskolin-stimulated cAMP accumulation preincubated for 20 mins followed by incubation with cAMP-d2 conjugate and anti-cAMP cryptate for 1 hr by HTRF assay; format: functional, cell-based
# T1 sequence (Q14416 whole entry): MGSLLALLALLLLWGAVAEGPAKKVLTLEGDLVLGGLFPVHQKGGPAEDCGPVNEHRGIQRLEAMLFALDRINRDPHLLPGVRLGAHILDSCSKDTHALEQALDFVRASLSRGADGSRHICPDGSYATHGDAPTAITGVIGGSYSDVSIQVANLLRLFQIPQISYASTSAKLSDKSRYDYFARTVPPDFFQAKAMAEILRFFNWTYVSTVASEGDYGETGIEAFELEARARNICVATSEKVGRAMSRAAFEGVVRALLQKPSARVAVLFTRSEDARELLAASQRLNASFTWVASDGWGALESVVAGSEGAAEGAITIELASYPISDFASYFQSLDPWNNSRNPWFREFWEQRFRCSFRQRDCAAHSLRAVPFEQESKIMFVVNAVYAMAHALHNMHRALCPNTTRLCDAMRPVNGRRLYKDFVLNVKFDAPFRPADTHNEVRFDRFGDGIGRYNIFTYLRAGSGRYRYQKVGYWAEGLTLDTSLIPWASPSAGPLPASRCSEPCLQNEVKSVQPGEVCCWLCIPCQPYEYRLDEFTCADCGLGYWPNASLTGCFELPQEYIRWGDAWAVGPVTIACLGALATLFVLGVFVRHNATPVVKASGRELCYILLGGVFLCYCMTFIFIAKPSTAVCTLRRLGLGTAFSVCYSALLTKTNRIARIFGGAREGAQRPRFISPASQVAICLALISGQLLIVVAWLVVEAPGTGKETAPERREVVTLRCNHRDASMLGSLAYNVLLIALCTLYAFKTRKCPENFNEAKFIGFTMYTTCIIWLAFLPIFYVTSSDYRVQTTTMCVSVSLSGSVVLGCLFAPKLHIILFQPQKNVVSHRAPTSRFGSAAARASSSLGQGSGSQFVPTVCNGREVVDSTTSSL
smiles,measurement,setting,value
CC(C)SC[C@@H]1[C@@H](O)[C@H]2[C@H](C(=O)O)[C@H]2[C@]1(N)C(=O)O,IC50,[1],2280 nM
same,Ki,[2],1200 nM
Cl.N[C@]1(C(=O)O)[C@@H]2[C@@H](C(=O)O)[C@@H]2[C@H](O)[C@H]1CSc1ccc(F)c(F)c1,IC50,[3],1260 nM
same,EC50,[4],> 25000 nM
same,EC50,[5],> 16700 nM
same,Ki,[6],2.5 nM
same,IC50,[7],2.5 nM
same,EC50,[8],> 25000 nM
same,IC50,[9],> 12500 nM
same,EC50,[10],> 25000 nM
same,IC50,[11],> 12500 nM
same,IC50,[12],4010 nM
same,EC50,[13],> 25000 nM
same,IC50,[14],> 12500 nM
same,solubility,[15],> 100 µM
same,metabolised at 2 µM,[16],< 15%
same,metabolised at 2 µM,[17],< 15%
same,metabolised at 2 µM,[18],< 15%
same,metabolised at 2 µM,[19],< 15%
same,inhibition at 10 µM,CYP3A4,< 10%
same,inhibition at 10 µM,CYP2D6,< 10%
same,inhibition at 10 µM,CYP2C9,< 10%
same,fraction unbound,[20],> 0.6
same,fraction unbound,[21],> 0.6
same,AUC(0-t) at 24 h,[22],5.03 µM·h
same,AUC(0-t) at 24 h,[23],15.2 µM·h
same,AUC(0-t) at 24 h,[24],45.5 µM·h
same,Cmax,[25],4.17 µM
same,Cmax,[26],20.6 µM
same,Cmax,[27],38.4 µM
same,Tmax,[28],15 min
same,Tmax,[29],15 min
same,Tmax,[30],15 min
same,half-life,[31],42 min
same,half-life,[32],30 min
same,half-life,[33],64.2 min
same,AUC/dose,[34],4571 nM·h/mg/kg
same,AUC/dose,[35],4601 nM·h/mg/kg
same,AUC/dose,[36],4134 nM·h/mg/kg
same,clearance,[37],5.83 mL/min/kg
same,Drug uptake(free),[38],8.1 nM
same,Drug uptake(free),[39],47.3 nM
same,Drug uptake(free),[40],151.9 nM
same,Cp(f),[41],0.84 µM
same,Cp(f),[42],3.956 µM
same,Cp(f),[43],7.731 µM
same,%max,Mus musculus [44],67.4%
same,ED60,Mus musculus [45],4.9 mg/kg
N[C@]1(C(=O)O)[C@@H]2[C@@H](C(=O)O)[C@@H]2[C@H](O)[C@H]1CSc1ccccc1F,IC50,[46],967 nM
same,Ki,[6],369 nM
same,IC50,[1],1440 nM
same,Ki,[2],728 nM
Cc1cc(SC[C@@H]2[C@@H](N)[C@H]3[C@H](C(=O)O)[C@H]3[C@]2(N)C(=O)O)ccc1F,IC50,[46],163 nM
same,Ki,[6],36.1 nM
same,IC50,[1],45.4 nM
same,Ki,[2],24 nM
Cc1ccc(SC[C@@H]2[C@@H](O)[C@H]3[C@H](C(=O)O)[C@H]3[C@]2(N)C(=O)O)cc1C,IC50,[1],27.6 nM
same,Ki,[2],14.2 nM
